Assays:
[1] = cited from earlier work
[2] = system: enoxaparin-induced anticoagulation; assay: Enoxaparin-induced anticoagulation and its reversal in rats; type: in vivo
[3] = system: blood loss due to fondaparinux; assay: Rat tail transection blood loss model, fondaparinux; type: in vivo, Sprague-Dawley rats; conditions: fondaparinux 25 mg/kg IV bolus, protamine 0.9 mg IV bolus
[4] = system: blood loss due to enoxaparin; design: species or system Sprague-Dawley rats; conditions: in vivo
[5] = system: clot formation in human platelet poor plasma; assay: Clotting prolongation assay, 96-well plate format (OD405 turbidity); type: biochemical; conditions: 1 U/ml enoxaparin; aPTT reagent
fXa (bovine fXa) = assay: Plasma anti-fXa activity assay (modified Coamatic LMWH kit); type: in vivo; design: dose or concentration left out as unconfirmed; conditions: fondaparinux
[6] = in vivo; cited from earlier work
[7] = system: PT of pooled human plasma; assay: Prothrombin time (PT) human plasma clotting assay; type: biochemical
[8] = system: PT of rhesus monkey plasma; assay: Prothrombin time in rhesus monkey plasma; type: biochemical, rhesus monkeys; conditions: 250 nM rivaroxaban; baseline 17.5±1.6 sec
[9] = Sustained reversal of betrixaban-induced anticoagulation in rats; type: in vivo; conditions: rat, plasma, intravenous
[10] = In vivo mouse model, PK-PD of betrixaban with antidote; design: species or system C57Bl/6 mice; conditions: male, C57Bl/6, mouse, plasma, oral, Betrixaban (ng/mL), […] after 15 mg/kg betrixaban PO, 5 min after antidote injection
thrombin generation = assay: Thrombin generation assay in platelet poor plasma; type: biochemical, human; conditions: betrixaban 250 nM; in presence of rfVIIa (50-200 nM) and tissue factor; PPP
[11] = system: aPTT of pooled human plasma; assay: aPTT human plasma clotting assay (MLA Electra 800 coagulation timer); type: biochemical
[12] = 1 mg/kg/hr, Betrixaban alone (uM), plasma concentration, betrixaban 1.0 mg/kg/hr IV for 30 min, no antidote
[13] = Betrixaban + antidote (uM), betrixaban plasma concentration, betrixaban infusion then r-Antidote 5 mg bolus + 5 mg/hr

protamine sulfate
neutralization of enoxaparin activity ([1]; slow intravenous infusion of protamine sulfate, enoxaparin prescribing information): up to 60%
reversal of enoxaparin-induced anticoagulation (plasma aPTT) ([2]; rats, enoxaparin 3.0 mg/kg, r-Antidote 5 mg bolus + 5 mg/h or protamine sulfate 0.9 mg): sustained reversal
reversal of blood loss due to fondaparinux ([3]; listed as Protamine): failed to display corrective activity
reversal of blood loss due to fondaparinux ([3]; listed as protamine): did not reverse blood loss

enoxaparin
maximum blood loss (plateau), of normal rat blood volume [4]: approximately 5%
peak anti fXa activity ([1]; human, in vivo, sc, 1 mg/kg): 1.1 U/ml
Mean absolute bioavailability ([1]; human, in vivo, sc): 92%
anti-fXa level corresponding to prescribed dose ([1]; human, in vivo): approximately 1 U/mL
peak anticoagulation in rat plasma (Coatest LMW heparin assay) ([2]; enoxaparin 1 mg/kg IV bolus): 1 anti fXa U/ml
peak anticoagulation in rat plasma (Coatest LMW heparin assay) ([2]; enoxaparin 3 mg/kg IV bolus): 4 anti fXa U/ml
whole blood INR ([2]; rats, enoxaparin 1, 3 and 6 mg/kg IV bolus): dose proportional extensions
extension of clotting time compared to control plasma [5]: greater than 5 fold

CO[C@H]1O[C@H](COS(=O)(=O)O)[C@@H](O[C@@H]2O[C@@H](C(=O)O)[C@@H](O[C@H]3O[C@H](COS(=O)(=O)O)[C@@H](O[C@@H]4O[C@H](C(=O)O)[C@@H](O[C@H]5O[C@H](COS(=O)(=O)O)[C@@H](O)[C@H](O)[C@H]5NS(=O)(=O)O)[C@H](O)[C@H]4O)[C@H](OS(=O)(=O)O)[C@H]3NS(=O)(=O)O)[C@H](O)[C@H]2OS(=O)(=O)O)[C@H](O)[C@H]1NS(=O)(=O)O [fondaparinux]
anti-fXa activity expressed with enoxaparin as the standard (fXa (bovine fXa); human plasma): 0.80 U/ml enoxaparin
anti-fXa activity expressed with enoxaparin as the standard (fXa (bovine fXa); rat plasma): 0.66 U/ml enoxaparin

O=C(NC[C@H]1CN(c2ccc(N3CCOCC3=O)cc2)C(=O)O1)c1ccc(Cl)s1 [rivaroxaban]
Reported therapeutic concentration [6]: approximately 600 nM
PT ([7]; 1 μM rivaroxaban, baseline PT 14.1 sec): 23.4 s
PT (average±standard deviation) [8]: 32.3 ± 6.1 s

COc1ccc(NC(=O)c2ccc(C(=N)N(C)C)cc2)c(C(=O)Nc2ccc(Cl)cn2)c1 [betrixaban, [2-({4-[(dimethylamino)iminomethyl]phenyl}carbonylamino)-5-methoxyphenyl]-N-(5-chloro(2-pyridyl))carboxamide]
concentration at 30 min ([9]; 1 mg/kg/hr, Betrixaban + antidote (uM), betrixaban plasma concentration, betrixaban 1.0 mg/kg/hr IV for 30 min, antidote group before antidote dosing): 0.154 µM
concentration at 30 min [9, 12]: 0.169 µM
concentration at 35 min [9, 12]: 0.062 µM
concentration at 60 min [9, 12]: 0.045 µM
concentration at 90 min [9, 12]: 0.048 µM
concentration at 35 min [9, 13]: 1.57 µM
concentration at 60 min [9, 13]: 1.88 µM
concentration at 90 min [9, 13]: 1.19 µM
concentration at […] ([10]; Mean, pd-Antidote treated mice): 687 ng/mL
concentration at […] ([10]; Mean, r-Antidote treated mice): 381 ng/mL
concentration at […] ([10]; individual animal, r-Antidote treated mice): 434 ng/mL
inhibition of fXa by betrixaban (thrombin generation) (thrombin generation): about 75%
aPTT ([11]; 300 nM Betrixaban): 61.8 s
aPTT ([11]; 400 nM betrixaban): 66.3 s
extension of aPTT ([11]; 400 nM betrixaban): more than two folds

COc1ccc(-n2nc(C(N)=O)c3c2C(=O)N(c2ccc(N4CCCCC4=O)cc2)CC3)cc1 [apixaban]
PT ([7]; 1 μM apixaban): 16.4 s
